# Counter-ions that a name gives are not always drawn.
row,Compound,melting point
1,"CN1CCN(CCNC(=O)Nc2nc3cc(OS(=O)(=O)c4c(Cl)cccc4Cl)ccc3[nH]2)CC1 (as salt: benzenesulfonate) [Example 20, 2-({[2-(4-Methylpiperazin-1-yl)ethyl]carbamoyl}amino)-1H-benzimidazol-5-yl 2,6-dichlorobenzenesulfonate]",180 °C
2,"O=C(NCCN1CCNCC1)Nc1nc2cc(OS(=O)(=O)c3c(Cl)cccc3Cl)ccc2[nH]1 (as salt: benzenesulfonate) [Example 21, 2-{[(2-piperazin-1-ylethyl)carbamoyl]amino}-1H-benzimidazol-5-yl 2,6-dichlorobenzenesulfonate]",145 to 150 °C
3,"O=C(CCC1CCN(C(=O)c2ccccc2)CC1)Nc1nc2cc(OS(=O)(=O)c3c(Cl)cccc3Cl)ccc2[nH]1 (as salt: benzenesulfonate) [Example 26, 2-{[3-(1-Benzoylpiperidin-4-yl)propanoyl]amino}-1H-benzimidazol-5-yl 2,6-dichlorobenzenesulfonate]",135 °C
4,"O=C(NCc1ccccn1)Nc1nc2ccc(OS(=O)(=O)c3c(Cl)cccc3Cl)cc2s1 (as salt: benzenesulfonate) [Example 30, 2-{[(Pyridin-2-ylmethyl)carbamoyl]amino}-1,3-benzothiazol-6-yl 2,6-dichlorobenzenesulfonate]",118 °C
5,"CC(C)(C)OC(=O)Nc1nc2cc(OS(=O)(=O)c3c(Cl)cccc3Cl)ccc2[nH]1 (as salt: benzenesulfonate) [Example 23, 2-[(tert-Butoxycarbonyl)amino]-1H-benzimidazol-5-yl 2,6-dichlorobenzenesulfonate]",205 °C
6,"O=C(CCC1CCNCC1)Nc1nc2cc(OS(=O)(=O)c3c(Cl)cccc3Cl)ccc2[nH]1 (as salt: benzenesulfonate) [Example 27, 2-[(3-Piperidin-4-ylpropanoyl)amino]-1H-benzimidazol-5-yl 2,6-dichlorobenzenesulfonate]",135 °C
7,"COCCNC(=O)Nc1nc2cc(OS(=O)(=O)c3c(C)cc(C)cc3C)ccc2[nH]1 (as salt: benzenesulfonate) [Example 3, 2-{[(2-Methoxyethyl)carbamoyl]amino}-1H-benzimidazol-5-yl 2,4,6-trimethylbenzenesulfonate]",140 °C
8,"O=C(Nc1nc2ccc(OS(=O)(=O)c3c(Cl)cccc3Cl)cc2s1)NC1CC1 (as salt: benzenesulfonate) [Example 31, 2-[(Cyclopropylcarbamoyl)amino]-1,3-benzothiazol-6-yl 2,6-dichlorobenzenesulfonate]",128 °C
9,"O=C(NCCC1CCN(Cc2ccccc2)CC1)Nc1nc2ccc(OS(=O)(=O)c3c(Cl)cccc3Cl)cc2s1 (as salt: benzenesulfonate) [Example 33, 2-({[2-(1-Benzylpiperidin-4-yl)ethyl]carbamoyl}amino)-1,3-benzothiazol-6-yl 2,6-dichlorobenzenesulfonate]",105 °C
10,"O=C(Nc1nc2cc(OS(=O)(=O)c3c(Cl)cccc3Cl)ccc2[nH]1)C1CC1 (as salt: benzenesulfonate) [Example 24, 2-[(Cyclopropylcarbonyl)amino]-1H-benzimidazol-5-yl 2,6-dichlorobenzenesulfonate]",242 °C
11,"COCCNC(=O)Nc1nc2cc(OS(=O)(=O)c3c(C)cccc3Cl)ccc2[nH]1 (as salt: benzenesulfonate) [Example 2, 2-{[(2-Methoxyethyl)carbamoyl]amino}-1H-benzimidazol-5-yl 2-chloro-6-methylbenzenesulfonate]",138 °C
12,"O=C(Nc1nc2cc(OS(=O)(=O)c3c(F)cccc3F)ccc2[nH]1)C1CC1 (as salt: benzenesulfonate) [Example 29, 2-[(Cyclopropylcarbonyl)amino]-1H-benzimidazol-5-yl 2,6-difluorobenzenesulfonate]",174 °C
13,"O=C(NCCN1CCOCC1)Nc1nc2cc(OS(=O)(=O)c3c(F)cccc3F)ccc2[nH]1 (as salt: benzenesulfonate) [Example 9, 2-{[(2-Morpholin-4-ylethyl)carbamoyl]amino}-1H-benzimidazol-5-yl 2,6-difluorobenzenesulfonate]",190 to 192 °C
14,"O=C(NCc1ccccc1)Nc1nc2cc(OS(=O)(=O)c3c(Cl)cccc3Cl)ccc2[nH]1 (as salt: benzenesulfonate) [Example 18, 2-[(Benzylcarbamoyl)amino]-1H-benzimidazol-5-yl 2,6-dichlorobenzenesulfonate]",195 °C
15,"O=C(Nc1nc2cc(OS(=O)(=O)c3c(Cl)cccc3Cl)ccc2[nH]1)NC1CC1 (as salt: benzenesulfonate) [Example 12, 2-[(Cyclopropylcarbamoyl)amino]-1H-benzimidazol-5-yl 2,6-dichlorobenzenesulfonate]",160 to 165 °C
16,"O=C(NCCC1CCNCC1)Nc1nc2cc(OS(=O)(=O)c3c(Cl)cccc3Cl)ccc2[nH]1 (as salt: benzenesulfonate) [Example 22, 2-{[(2-Piperidin-4-ylethyl)carbamoyl]amino}-1H-benzimidazol-5-yl 2,6-dichlorobenzenesulfonate]",165 °C

# More lines, now with the values ahead:
row,melting point,Compound
1,100 °C,"CN(C)CCCNC(=O)Nc1nc2ccc(OS(=O)(=O)c3c(Cl)cccc3Cl)cc2s1 (as salt: benzenesulfonate) [Example 62, 2-({[3-(dimethylamino)propyl]carbamoyl}amino)-1,3-benzothiazol-6-yl 2,6-dichlorobenzenesulfonate]"
2,177 °C,"O=C(NCc1ccc(N2CCOCC2)cc1)Nc1nc2ccc(OS(=O)(=O)c3c(Cl)cccc3Cl)cc2s1 (as salt: benzenesulfonate) [Example 70, 2-{[(4-morpholin-4-ylbenzyl)carbamoyl]amino}-1,3-benzothiazol-6-yl 2,6-dichlorobenzenesulfonate]"
3,122 °C,"CC1CCCC(C)N1CCNC(=O)Nc1nc2ccc(OS(=O)(=O)c3c(Cl)cccc3Cl)cc2s1 (stereo not shown) (as salt: benzenesulfonate) [Example 63, 2-({[2-(2,6-dimethylpiperidin-1-yl)ethyl]carbamoyl}amino)-1,3-benzothiazol-6-yl 2,6-dichlorobenzenesulfonate]"
4,114 °C,"O=C(CCCC1CCNCC1)Nc1nc2ccc(OS(=O)(=O)c3c(Cl)cccc3Cl)cc2s1 (as salt: benzenesulfonate) [Example 48, 2-[(4-Piperidin-4-ylbutanoyl)amino]-1,3-benzothiazol-6-yl 2,6-dichlorobenzenesulfonate]"
5,249 °C,"O=C(Nc1nc2ccc(OS(=O)(=O)c3c(Cl)cccc3Cl)cc2s1)NC1CCCC1 (as salt: benzenesulfonate) [Example 73, 2-[(cyclopentylcarbamoyl)amino]-1,3-benzothiazol-6-yl 2,6-dichlorobenzenesulfonate]"
6,158 °C,"O=C(NCCN1CCNCC1)Nc1nc2ccc(OS(=O)(=O)c3c(Cl)cccc3Cl)cc2s1 (as salt: benzenesulfonate) [Example 36, 2-{[(2-piperazin-1-ylethyl)carbamoyl]amino}-1,3-benzothiazol-6-yl 2,6-dichlorobenzenesulfonate]"
7,88 °C,"CN1CCN(c2ccc(CNC(=O)Nc3nc4ccc(OS(=O)(=O)c5c(Cl)cccc5Cl)cc4s3)cc2)CC1 (as salt: benzene-sulfonate) [Example 52, 2-({[4-(4-methylpiperazin-1-yl)benzyl]carbamoyl}amino)-1,3-benzothiazol-6-yl 2,6-dichlorobenzene-sulfonate]"
8,95 °C,"O=C(NCCN1CCC(Cc2ccccc2)CC1)Nc1nc2ccc(OS(=O)(=O)c3c(Cl)cccc3Cl)cc2s1 (as salt: benzenesulfonate) [Example 55, 2-({[2-(4-benzylpiperidin-1-yl)ethyl]carbamoyl}amino)-1,3-benzothiazol-6-yl 2,6-dichlorobenzenesulfonate]"
9,100 °C,"O=C(NCCN1CCOCC1)Nc1nc2ccc(OS(=O)(=O)c3ccccc3Cl)cc2s1 (as salt: benzenesulfonate) [Example 40, 2-{[(2-Morpholin-4-ylethyl)carbamoyl]amino}-1,3-benzothiazol-6-yl 2-chlorobenzenesulfonate]"
10,68 °C,"CN(CCCNC(=O)Nc1nc2ccc(OS(=O)(=O)c3c(Cl)cccc3Cl)cc2s1)c1ccccc1 (as salt: benzenesulfonate) [Example 54, 2-[({3-[methyl(phenyl)amino]propyl}carbamoyl)amino]-1,3-benzothiazol-6-yl 2,6-dichlorobenzenesulfonate]"
11,195 °C,"O=C(NCCCN1CCCC1=O)Nc1nc2ccc(OS(=O)(=O)c3c(Cl)cccc3Cl)cc2s1 (as salt: benzenesulfonate) [Example 65, 2-({[3-(2-oxopyrrolidin-1-yl)propyl]carbamoyl}amino)-1,3-benzothiazol-6-yl 2,6-dichlorobenzenesulfonate]"
12,240 °C,"O=C(CCc1cccnc1)Nc1nc2ccc(OS(=O)(=O)c3c(Cl)cccc3Cl)cc2s1 (as salt: benzenesulfonate) [Example 43, 2-[(3-Pyridin-3-ylpropanoyl)amino]-1,3-benzothiazol-6-yl 2,6-dichlorobenzenesulfonate]"

# Reference: patent publication US8110571B2, “Benzimidazole and benzothiazole derivatives, method for preparing same, use thereof as drugs, pharmaceutical compositions and novel use especially as c-MET inhibitors” (Aventis Pharma S.A., priority 2005, dated 2012)
